Reference: patent US20240300944A1, “NOVEL UREA DERIVATIVE COMPOUND AS RON INHIBITOR” (LG CHEM, LTD., priority 2021, published 2024)

Experiments:
RON = RON (Homo sapiens, UniProt Q04912); assay: Inhibitory activity against RON, TR-FRET kinase assay; format: biochemical; settings: RON enzyme
Procedure: In order to measure the inhibitory activity of each of the compounds of Examples against RON, the IC50 of each of the compounds was measured using a Time-Resolved Fluorescence Energy Transfer Chemistry (TR-FRET).
(§1) Specifically, the compound was prepared to a concentration of 1 mM with 100% DMSO and was diluted 10 times in a stepwise manner through 3-fold dilution. 2 ul of the compound diluted in a stepwise manner was added to a 96-well-plate containing 48 ul of a 1× kinase reaction buffer (50 mM HEPES (pH 7.4), 0.01% Tween-20, 5 mM DTT, 0.5 mM Na3VO4, 2 mM EGTA, 10 mM MgCl2).
The RON protein was diluted to a concentration of 49.3 nM with an RON storage buffer (50 mM Tris-HCl (pH 7.5), 150 mM NaCl, 0.5 mM EDTA, 0.02% Triton X-100), and then diluted again to a concentration of 0.4 nM with a 1× kinase reaction buffer. As a substrate cocktail, a RON-specific substrate mixture (40 uM ULight-labeled Poly GT, 100 nM ATP) at a concentration 2 times the final reaction concentration.
Thereafter, a 384-well-plate was prepared, and 2.5 ul of each of the diluted compounds of Examples was added to a corresponding well of experimental group wells, and 2.5 ul of a 4% DMSO solution was dispensed into high control wells and low control wells.
(§2) Thereafter, 2.5 μL of 0.4 nM RON was dispensed into the high control wells and the experimental group wells, and 2.5 μL of a 1× kinase reaction buffer was added to the low control wells, and the RON and the reaction buffer were centrifuged at room temperature for 40 seconds at 1000 RPM, and then incubated at room temperature for 20 to 30 minutes. Then, 5 μL of a substrate cocktail (2×) was dispensed into all wells, centrifuged at room temperature for 40 seconds at 1000 RPM, and then incubated at room temperature for 60 minutes. Thereafter, 5 μL of 30 mM EDTA was added to all wells to terminate the reaction, and then incubated again at room temperature for 5 minutes. Thereafter, 5 μL of a 4× phosphotyrosine antibody (Perkin Elmer) containing europium was added to all wells, and then incubated at room temperature for 60 minutes. After the incubation, the 384-well-plate was read with a Vison plate reader. At this time, the excitation wavelength was 340 nm, and the emission wavelength was 620 nm and 665 nm. The IC50 value of the compound of each Example was derived using the GraphPd Prism7 program.

cMET = cMET (Homo sapiens, UniProt P08581); assay: Inhibitory activity against MET (cMET), TR-FRET kinase assay; format: biochemical; settings: cMET enzyme
Procedure: In addition, in order to measure the enzyme activity inhibition for cMET, the evaluation was performed in the same manner as the enzyme activity inhibition measurement experiment for the RON.
as §1, with “7.4), 0.05% BSA, 0.005%” for “7.4), 0.01%”, “Tween-20, 1” for “Tween-20, 5”, “mM MnCl2, 20” for “mM Na3VO4, 2 mM EGTA, 10”
The cMET protein was diluted to a concentration of 263 nM with a cMET storage buffer (50 mM Tris-HCl (pH 7.5), 150 mM NaCl, 0.05% Brij35, 1 mM DTT, 10% Glycerol), and then diluted again to a concentration of 2 nM with a 1× kinase reaction buffer. As a substrate cocktail, a MET-specific substrate mixture (5 uM TK peptide, […]) at a concentration 2 times the final reaction concentration.
Thereafter, a 384-well-plate was prepared, and 2.5 μl of each of the diluted compounds of Examples was added to a corresponding well of experimental group wells, and 2.5 μl of a 4% DMSO solution was dispensed into high control wells and low control wells.
as §2, with “of 2” for “of 0.4”, “nM cMET” for “nM RON”, “of 90” for “of 30”

RON, sequence (Q04912 25-1400, species assumed): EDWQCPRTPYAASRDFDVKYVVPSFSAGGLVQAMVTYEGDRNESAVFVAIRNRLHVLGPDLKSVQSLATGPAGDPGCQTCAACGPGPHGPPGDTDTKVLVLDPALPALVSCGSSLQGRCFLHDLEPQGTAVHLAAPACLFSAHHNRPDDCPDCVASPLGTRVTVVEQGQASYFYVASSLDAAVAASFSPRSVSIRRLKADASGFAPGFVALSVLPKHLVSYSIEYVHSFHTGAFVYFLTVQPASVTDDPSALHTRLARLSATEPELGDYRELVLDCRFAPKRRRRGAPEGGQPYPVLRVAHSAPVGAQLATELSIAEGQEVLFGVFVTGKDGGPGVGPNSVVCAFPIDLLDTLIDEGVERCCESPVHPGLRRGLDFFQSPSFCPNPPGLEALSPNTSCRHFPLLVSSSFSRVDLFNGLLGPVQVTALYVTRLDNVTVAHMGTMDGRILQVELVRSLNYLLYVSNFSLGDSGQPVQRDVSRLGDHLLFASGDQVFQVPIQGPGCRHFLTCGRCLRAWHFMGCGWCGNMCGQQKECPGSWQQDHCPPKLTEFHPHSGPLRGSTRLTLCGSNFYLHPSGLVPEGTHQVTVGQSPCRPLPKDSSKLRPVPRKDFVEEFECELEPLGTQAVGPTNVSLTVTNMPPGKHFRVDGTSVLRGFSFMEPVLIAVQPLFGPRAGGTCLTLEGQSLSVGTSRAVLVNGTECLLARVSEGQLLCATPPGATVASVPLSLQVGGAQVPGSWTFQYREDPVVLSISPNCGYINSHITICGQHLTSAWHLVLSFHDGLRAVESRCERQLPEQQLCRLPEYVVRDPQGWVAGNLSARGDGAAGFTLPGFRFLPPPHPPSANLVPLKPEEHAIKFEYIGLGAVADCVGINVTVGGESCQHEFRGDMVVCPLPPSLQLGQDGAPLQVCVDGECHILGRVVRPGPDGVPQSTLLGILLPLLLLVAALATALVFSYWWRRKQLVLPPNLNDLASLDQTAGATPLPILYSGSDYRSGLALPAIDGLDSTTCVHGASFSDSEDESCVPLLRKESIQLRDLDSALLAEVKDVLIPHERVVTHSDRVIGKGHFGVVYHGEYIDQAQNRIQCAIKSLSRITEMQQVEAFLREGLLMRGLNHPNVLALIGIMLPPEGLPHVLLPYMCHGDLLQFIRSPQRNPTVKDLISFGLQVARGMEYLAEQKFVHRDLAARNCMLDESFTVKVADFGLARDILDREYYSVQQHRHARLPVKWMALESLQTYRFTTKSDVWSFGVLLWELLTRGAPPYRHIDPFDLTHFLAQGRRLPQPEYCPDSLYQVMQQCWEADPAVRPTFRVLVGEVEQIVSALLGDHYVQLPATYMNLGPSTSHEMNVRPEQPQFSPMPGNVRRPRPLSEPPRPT
cMET, sequence (P08581 25-1390): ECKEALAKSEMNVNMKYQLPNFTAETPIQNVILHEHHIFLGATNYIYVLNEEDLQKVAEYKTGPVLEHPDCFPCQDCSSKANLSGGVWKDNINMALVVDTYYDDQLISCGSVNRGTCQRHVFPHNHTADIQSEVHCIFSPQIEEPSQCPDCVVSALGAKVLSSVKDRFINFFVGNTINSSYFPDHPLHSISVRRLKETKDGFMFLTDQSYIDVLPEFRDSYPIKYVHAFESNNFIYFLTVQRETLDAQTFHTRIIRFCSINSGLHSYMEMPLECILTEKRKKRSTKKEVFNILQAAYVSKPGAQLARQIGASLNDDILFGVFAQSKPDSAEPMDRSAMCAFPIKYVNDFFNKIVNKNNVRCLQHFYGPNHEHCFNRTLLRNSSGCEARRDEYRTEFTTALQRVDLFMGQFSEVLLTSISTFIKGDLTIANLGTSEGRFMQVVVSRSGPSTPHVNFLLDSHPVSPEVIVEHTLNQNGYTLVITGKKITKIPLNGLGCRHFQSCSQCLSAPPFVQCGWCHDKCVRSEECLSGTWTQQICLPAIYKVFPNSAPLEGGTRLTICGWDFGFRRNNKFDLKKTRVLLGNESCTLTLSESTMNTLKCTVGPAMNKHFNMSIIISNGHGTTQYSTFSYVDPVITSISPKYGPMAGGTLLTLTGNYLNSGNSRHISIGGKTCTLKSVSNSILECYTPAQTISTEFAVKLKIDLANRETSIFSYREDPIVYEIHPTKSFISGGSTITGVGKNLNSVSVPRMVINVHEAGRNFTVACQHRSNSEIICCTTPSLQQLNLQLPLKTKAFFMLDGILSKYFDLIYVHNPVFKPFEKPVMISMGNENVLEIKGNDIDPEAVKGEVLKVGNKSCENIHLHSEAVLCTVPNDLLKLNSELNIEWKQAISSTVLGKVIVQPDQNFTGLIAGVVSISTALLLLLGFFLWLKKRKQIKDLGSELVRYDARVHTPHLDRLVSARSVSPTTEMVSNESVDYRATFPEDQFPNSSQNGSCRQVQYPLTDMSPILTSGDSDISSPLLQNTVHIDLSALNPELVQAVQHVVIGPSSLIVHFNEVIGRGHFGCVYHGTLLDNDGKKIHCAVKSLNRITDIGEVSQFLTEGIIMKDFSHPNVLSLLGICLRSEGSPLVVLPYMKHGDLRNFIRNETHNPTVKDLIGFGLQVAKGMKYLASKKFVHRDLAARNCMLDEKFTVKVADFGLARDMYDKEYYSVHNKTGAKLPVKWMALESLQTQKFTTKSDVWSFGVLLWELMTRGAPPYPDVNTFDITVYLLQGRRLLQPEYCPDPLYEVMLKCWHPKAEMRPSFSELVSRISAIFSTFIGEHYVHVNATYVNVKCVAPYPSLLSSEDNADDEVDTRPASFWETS

| Structure (SMILES) | IC50 (RON) | IC50 (cMET) |
| --- | --- | --- |
| CC(C)n1c(=O)[nH]c2nccc(Oc3ccc(NC(=O)c4cnn(-c5c(F)cccc5F)c4C(F)(F)F)cc3F)c21 [Example 36, 1-(2,6-difluorophenyl)-N-(3-fluoro-4-((1-isopropyl-2-oxo-2,3-dihydro-1H-imidazo[4,5-b]pyridine-7-yl)oxy)phenyl)-5-(trifluoromethyl)-1H-pyrazole-4-carboxamide] | < 50 nM | 500 to 5000 nM |
| O=C(Nc1ccc(Oc2ccnc3[nH]c(=O)n(C4CCOCC4)c23)c(F)c1)c1cnn(-c2ccccc2)c1C(F)(F)F [Example 37, N-(3-fluoro-4-((2-oxo-1-(tetrahydro-2H-pyran-4-yl)-2,3-dihydro-1H-imidazo[4,5-b]pyridine-7-yl)oxy)phenyl)-1-phenyl-5-(trifluoromethyl)-1H-pyrazole-4-carboxamide] | 50 to 500 nM | 500 to 5000 nM |
| O=C(Nc1ccc(Oc2ccnc3[nH]c(=O)n(C4CCOC4)c23)c(F)c1)c1cnn(-c2ccccc2)c1C(F)(F)F (centres unmarked) [Example 38, N-(3-fluoro-4-((2-oxo-1-(tetrahydrofuran-3-yl)-2,3-dihydro-1H-imidazo[4,5-b]pyridine-7-yl)oxy)phenyl)-1-phenyl-5-(trifluoromethyl)-1H-pyrazole-4-carboxamide] | < 50 nM | 500 to 5000 nM |
| CN1CCC(n2c(=O)[nH]c3nccc(Oc4ccc(NC(=O)c5cnn(-c6ccccc6)c5C(F)(F)F)cc4F)c32)CC1 [Example 39, N-(3-fluoro-4-((1-(1-methylpiperidine-4-yl)-2-oxo-2,3-dihydro-1H-imidazo[4,5-b]pyridine-7-yl)oxy)phenyl)-1-phenyl-5-(trifluoromethyl)-1H-pyrazole-4-carboxamide] | < 50 nM | > 5000 nM |
| CC(C)n1c(=O)[nH]c2nccc(Oc3ccc(NC(=O)c4ccn(-c5ccccc5)n4)cc3F)c21 [Example 40, N-(3-fluoro-4-((1-isopropyl-2-oxo-2,3-dihydro-1H-imidazo[4,5-b]pyridine-7-yl)oxy)phenyl)-1-phenyl-1H-pyrazole-3-carboxamide] | 500 to 5000 nM | 500 to 5000 nM |
| CC(C)n1c(=O)[nH]c2nccc(Oc3ccc(NC(=O)c4cn(-c5ccccc5)nn4)cc3F)c21 [Example 41, N-(3-fluoro-4-((1-isopropyl-2-oxo-2,3-dihydro-1H-imidazo[4,5-b]pyridine-7-yl)oxy)phenyl)-1-phenyl-1H-1,2,3-triazole-4-carboxamide] | 500 to 5000 nM | > 5000 nM |
| Cc1c(C(=O)Nc2ccc(Oc3ccnc4[nH]c(=O)n(C(C)C)c34)c(F)c2)nnn1-c1ccccc1 [Example 42, N-(3-fluoro-4-((1-isopropyl-2-oxo-2,3-dihydro-1H-imidazo[4,5-b]pyridine-7-yl)oxy)phenyl)-5-methyl-1-phenyl-1H-1,2,3-triazole-4-carboxamide] | 50 to 500 nM | > 5000 nM |
